Results published in patent publication US20250197372A1 (priority 2020, published 2025).

What follows are compounds tested against T1, recombinant human GBA (beta-glucocerebrosidase) (Homo sapiens, UniProt P04062) (assay: Beta-glucocerebrosidase (GBA, glucosylceramidase) assay (4-methylumbelliferyl-beta-D-pyranoside substrate, fluorescence)).
T1 sequence (P04062 40-536): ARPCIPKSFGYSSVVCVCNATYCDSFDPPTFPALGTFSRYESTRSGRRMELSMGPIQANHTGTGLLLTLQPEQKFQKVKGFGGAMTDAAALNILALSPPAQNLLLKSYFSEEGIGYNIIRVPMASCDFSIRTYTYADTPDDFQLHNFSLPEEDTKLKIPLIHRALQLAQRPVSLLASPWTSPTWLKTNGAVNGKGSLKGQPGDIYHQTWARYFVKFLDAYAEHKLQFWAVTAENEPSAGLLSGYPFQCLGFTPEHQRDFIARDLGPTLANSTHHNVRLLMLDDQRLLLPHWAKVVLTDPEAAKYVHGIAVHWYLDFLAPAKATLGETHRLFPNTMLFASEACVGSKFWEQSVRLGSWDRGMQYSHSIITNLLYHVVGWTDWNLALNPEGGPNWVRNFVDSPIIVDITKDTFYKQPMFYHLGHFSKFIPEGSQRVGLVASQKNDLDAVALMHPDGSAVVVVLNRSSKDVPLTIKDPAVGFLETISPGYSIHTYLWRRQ
Assay type: biochemical
Method: Beta-glucocerebrosidase (GBA, also referred to glucosylceramidase): To analyze inhibitory effects of a test compound, commercially available recombinant human GBA was incubated with multiple dilutions of test compound for 60 minutes at 37° C. 4-methylumbelliferyl-beta-D-pyranoside was then introduced to the mixture as substrate. Following incubation for 60 minutes at 37° C., 1,4-methyllumbelliferone was generated, and the reaction was stopped with the stop solution (0.5 M glycine; 0.3 M NaOH, pH 10). 1,4-methyllumbelliferone was detected by fluorescence (excitation at 365 nm, emission at 440 nm). Relative fluorescence compared to untreated enzymatic activity and test compound concentration is then plotted as a function of percent inhibition. The IC50 was determined using a 4-PL curve fit as the measure of relative inhibitory activity of each test compound (see Table 3).
`OC[C@@H]1[C@@H](O)[C@H](O)[C@@H](O)CN1Cc1ccc(CNc2cc(-c3cccnn3)cc(C3CC3)c2)cc1` [Compound 1012, (2R,3R,4R,5S)-1-{[4-({[3-cyclopropyl-5-(pyridazin-3-yl)phenyl]amino}methyl)phenyl]methyl}-2-(hydroxymethyl)piperidine-3,4,5-triol] was tested, and the IC50 was 32.3 µM. `O=[N+]([O-])c1cc(CCO)ccc1NCCCCCCN1C[C@H](O)[C@@H](O)[C@H](O)[C@H]1CO` [Compound 1292, (2R,3R,4R,5S)-1-(6-{[4-(2-hydroxyethyl)-2-nitrophenyl]amino}hexyl)-2-(hydroxymethyl)piperidine-3,4,5-triol] showed an IC50 of 1.6 µM. For `[N-]=[N+]=Nc1ccc(NCc2cccc(CN3C[C@H](O)[C@@H](O)[C@H](O)[C@H]3CO)c2)c([N+](=O)[O-])c1` [Compound 1169, (2R,3R,4R,5S)-1-[(3-{[(4-azido-2-nitrophenyl)amino]methyl}phenyl)methyl]-2-(hydroxymethyl)piperidine-3,4,5-triol], the IC50 was 83.5 µM. `[N-]=[N+]=Nc1ccc(NCc2ccc(-c3ccc(CN4C[C@H](O)[C@@H](O)[C@H](O)[C@H]4CO)cc3)cc2)c([N+](=O)[O-])c1` [Compound 1166, (2R,3R,4R,5S)-1-[(4′-{[(4-azido-2-nitrophenyl)amino]methyl}-[1,1′-biphenyl]-4-yl)methyl]-2-(hydroxymethyl)piperidine-3,4,5-triol] gave an IC50 of 5.63 µM. For `OC[C@@H]1[C@@H](O)[C@H](O)[C@@H](O)CN1CCc1ccc(CCNc2cc(Cl)cc(-c3ncccn3)c2)cc1` [Compound 1162, (2R,3R,4R,5S)-1-{2-[4-(2-{[3-chloro-5-(pyrimidin-2-yl)phenyl]amino}ethyl)phenyl]ethyl}-2-(hydroxymethyl)piperidine-3,4,5-triol], the IC50 was 2.68 µM. With `O=[N+]([O-])c1cc(C2CC2)ccc1NCCCCCCN1C[C@H](O)[C@@H](O)[C@H](O)[C@H]1CO` [Compound 1136, (2R,3R,4R,5S)-1-{6-[(4-cyclopropyl-2-nitrophenyl)amino]hexyl}-2-(hydroxymethyl)piperidine-3,4,5-triol] the IC50 was 0.037 µM. `[N-]=[N+]=Nc1ccc(NCCc2cnn(CCN3C[C@H](O)[C@@H](O)[C@H](O)[C@H]3CO)c2)c([N+](=O)[O-])c1` [Compound 1191, (2R,3R,4R,5S)-1-[2-(4-{2-[(4-azido-2-nitrophenyl)amino]ethyl}-1H-pyrazol-1-yl)ethyl]-2-(hydroxymethyl)piperidine-3,4,5-triol] was tested, and the IC50 was 28.6 µM. Compound `COc1cc(NCCCCCCN2C[C@H](O)[C@@H](O)[C@H](O)[C@H]2CO)cc(C2=CCCCC2)c1` [Compound 1149, (2R,3R,4R,5S)-1-(6-{[3-(cyclohex-1-en-1-yl)-5-methoxy-phenyl]amino}hexyl)-2-(hydroxymethyl)piperidine-3,4,5-triol] has an IC50 of 0.056 µM. Compound `O=Cc1cc(-c2ncccn2)ccc1NCCCCCCN1C[C@H](O)[C@@H](O)[C@H](O)[C@H]1CO` [Compound 1184, 5-(pyrimidin-2-yl)-2-({6-[(2R,3R,4R,5S)-3,4,5-trihydroxy-2-(hydroxymethyl)piperidin-1-yl]hexyl}amino)benzaldehyde] has an IC50 of 0.95 µM. Work on `OC[C@@H]1[C@@H](O)[C@H](O)[C@@H](O)CN1CCc1ccc(CCNc2cc(Cl)cc(-c3cccnn3)c2)cc1` [Compound 1163, (2R,3R,4R,5S)-1-{2-[4-(2-{[3-chloro-5-(pyridazin-3-yl)phenyl]amino}ethyl)phenyl]ethyl}-2-(hydroxymethyl)piperidine-3,4,5-triol] yielded an IC50 of 6.82 µM. For `CS(=O)(=O)c1cc(Br)cc(NCc2cccc(CN3C[C@H](O)[C@@H](O)[C@H](O)[C@H]3CO)c2)c1` [Compound 1022, (2R,3R,4R,5S)-1-[(3-{[(3-bromo-5-methanesulfonylphenyl)amino]methyl}phenyl)methyl]-2-(hydroxymethyl)piperidine-3,4,5-triol], the IC50 was 90.4 µM. `[N-]=[N+]=Nc1ccc(NCCc2cc(CCN3C[C@H](O)[C@@H](O)[C@H](O)[C@H]3CO)ccc2C2CCCCC2)c([N+](=O)[O-])c1` [Compound 1171, (2R,3R,4R,5S)-1-[2-(3-{2-[(4-azido-2-nitrophenyl)amino]ethyl}-4-cyclohexylphenyl)ethyl]-2-(hydroxymethyl)piperidine-3,4,5-triol] was tested, and the IC50 was 0.204 µM. `O=[N+]([O-])c1cc(N2C3CCC2COC3)ccc1NCc1ccc(CN2CC(O)C(O)C(O)C2CO)cc1` (stereo in doubt) [Compound 1018, (2S,3S,4S,5R)-2-(hydroxymethyl)-1-({4-[({2-nitro-4-[(1R,5S)-3-oxa-8-azabicyclo[3.2.1]octan-8-yl]phenyl}amino)methyl]phenyl}methyl) piperidine-3,4,5-triol] gave an IC50 of over 100 µM. `C[C@@H]1CN(c2ccc(NCc3ccc(CN4C[C@H](O)[C@@H](O)[C@H](O)[C@H]4CO)cc3)c([N+](=O)[O-])c2)C[C@H](C)O1` [Compound 1014] was tested, and the IC50 was over 100 µM. `CCCc1nc(-c2cc(Cl)cc(NCCc3ccc(CCN4C[C@H](O)[C@@H](O)[C@H](O)[C@H]4CO)cc3)c2)no1` [Compound 1123, (2R,3R,4R,5S)-1-{2-[4-(2-{[3-chloro-5-(5-propyl-1,2,4-oxadiazol-3-yl)phenyl]amino}ethyl)phenyl]ethyl}-2-(hydroxymethyl)piperidine-3,4,5-triol] showed an IC50 of 0.627 µM. Compound `[N-]=[N+]=Nc1ccc(NCCc2ccc(CCN3C[C@H](O)[C@@H](O)[C@H](O)[C@H]3CO)cc2)c([N+](=O)[O-])c1` [Compound 1200, (2R,3R,4R,5S)-1-[2-(4-{2-[(4-azido-2-nitrophenyl)amino]ethyl}phenyl)ethyl]-2-(hydroxymethyl)piperidine-3,4,5-triol] has an IC50 of 1.45 µM. `[N-]=[N+]=Nc1ccc(NCCc2cncc(CCN3C[C@H](O)[C@@H](O)[C@H](O)[C@H]3CO)n2)c([N+](=O)[O-])c1` [Compound 1187, (2R,3R,4R,5S)-1-[2-(6-{2-[(4-azido-2-nitrophenyl)amino]ethyl}pyrazin-2-yl)ethyl]-2-(hydroxymethyl)piperidine-3,4,5-triol] showed an IC50 of 16.4 µM. `CS(=O)(=O)c1cc(NCc2cccc(CN3C[C@H](O)[C@@H](O)[C@H](O)[C@H]3CO)c2)cc(-c2ncccn2)c1` [Compound 1041, (2R,3R,4R,5S)-2-(hydroxymethyl)-1-{[3-({[3-methanesulfonyl-5-(pyrimidin-2-yl)phenyl]amino}methyl)phenyl]methyl}piperidine-3,4,5-triol] was tested, and the IC50 was over 100 µM. For `CC(=O)Nc1cc(NCCCCCCN2C[C@H](O)[C@@H](O)[C@H](O)[C@H]2CO)cc(-c2ncccn2)c1` [Compound 1125, N-[3-(pyrimidin-2-yl)-5-({6-[(2R,3R,4R,5S)-3,4,5-trihydroxy-2-(hydroxymethyl)piperidin-1-yl]hexyl}amino)phenyl]acetamide], the IC50 was 9.69 µM. With `COc1cc(Cc2ccccc2)cc(NCCCCCCN2C[C@H](O)[C@@H](O)[C@H](O)[C@H]2CO)c1` [Compound 1145, (2R,3R,4R,5S)-1-{6-[(3-benzyl-5-methoxyphenyl)amino]hexyl}-2-(hydroxymethyl)piperidine-3,4,5-triol] the IC50 was 0.458 µM. `[N-]=[N+]=Nc1ccc(NCCc2nccc(CCN3C[C@H](O)[C@@H](O)[C@H](O)[C@H]3CO)n2)c([N+](=O)[O-])c1` [Compound 1188, (2R,3R,4R,5S)-1-[2-(2-{2-[(4-azido-2-nitrophenyl)amino]ethyl}pyrimidin-4-yl)ethyl]-2-(hydroxymethyl)piperidine-3,4,5-triol] gave an IC50 of 9.05 µM. In the case of `OC[C@@H]1[C@@H](O)[C@H](O)[C@@H](O)CN1CCCCCCNc1ccc(-c2cccnn2)cc1Cl` [Compound 1202, (2R,3R,4R,5S)-1-(6-{[2-chloro-4-(pyridazin-3-yl)phenyl]amino}hexyl)-2-(hydroxymethyl)piperidine-3,4,5-triol], the IC50 is reported as 3.01 µM. Work on `OC[C@@H]1[C@@H](O)[C@H](O)[C@@H](O)CN1Cc1ccc(CNc2cc(C3CC3)cc(N3CCOCC3)c2)cc1` [Compound 1010, (2R,3R,4R,5S)-1-{[4-({[3-cyclopropyl-5-(morpholin-4-yl)phenyl]amino}methyl)phenyl]methyl}-2-(hydroxymethyl)piperidine-3,4,5-triol] yielded an IC50 of over 100 µM. Compound `CC(C)(C)c1cc(NCCCCCCN2C[C@H](O)[C@@H](O)[C@H](O)[C@H]2CO)cc(-c2ncccn2)c1` [Compound 1151, (2R,3R,4R,5S)-1-(6-{[3-tert-butyl-5-(pyrimidin-2-yl)phenyl]amino}hexyl)-2-(hydroxymethyl)piperidine-3,4,5-triol] has an IC50 of 0.299 µM. Compound `[N-]=[N+]=Nc1ccc(NCCc2ccc(CCN3C[C@H](O)[C@@H](O)[C@H](O)[C@H]3CO)s2)c([N+](=O)[O-])c1` [Compound 1186, (2R,3R,4R,5S)-1-[2-(5-{2-[(4-azido-2-nitrophenyl)amino]ethyl}hiophen-2-yl)ethyl]-2-(hydroxymethyl)piperidine-3,4,5-triol] has an IC50 of 1.28 µM. `OC[C@@H]1[C@@H](O)[C@H](O)[C@@H](O)CN1CCc1ccc(CCNc2cc(Cl)cc(C3=CCOCC3)c2)cc1` [Compound 1160, (2R,3R,4R,5S)-1-{2-[4-(2-{[3-chloro-5-(3,6-dihydro-2H-pyran-4-yl)phenyl]amino}ethyl)phenyl]ethyl}-2-(hydroxymethyl)piperidine-3,4,5-triol] showed an IC50 of 1.86 µM.
